Test results reported in US20240228469A1, “PCSK9 INHIBITORS AND METHODS OF USE THEREOF” (AstraZeneca AB, priority 2022, published 2024).

Tests used:
[1] = target: T1, potassium ion channel hERG (Homo sapiens, UniProt Q12809); assay: Assay 5 hERG assay (patch clamp, CHO cells over-expressing hERG); format: cell-based; conditions: SyncroPatch 384PE, room temperature, geometric mean, read-out: Assay 5 (hERG Hu CHO if EPh CR-Syncro) GMean IC50
T1 construct: expressed in transfected cells; host or cells: Chinese hamster ovary K1 (CHO)
T1 sequence (Q12809 whole entry): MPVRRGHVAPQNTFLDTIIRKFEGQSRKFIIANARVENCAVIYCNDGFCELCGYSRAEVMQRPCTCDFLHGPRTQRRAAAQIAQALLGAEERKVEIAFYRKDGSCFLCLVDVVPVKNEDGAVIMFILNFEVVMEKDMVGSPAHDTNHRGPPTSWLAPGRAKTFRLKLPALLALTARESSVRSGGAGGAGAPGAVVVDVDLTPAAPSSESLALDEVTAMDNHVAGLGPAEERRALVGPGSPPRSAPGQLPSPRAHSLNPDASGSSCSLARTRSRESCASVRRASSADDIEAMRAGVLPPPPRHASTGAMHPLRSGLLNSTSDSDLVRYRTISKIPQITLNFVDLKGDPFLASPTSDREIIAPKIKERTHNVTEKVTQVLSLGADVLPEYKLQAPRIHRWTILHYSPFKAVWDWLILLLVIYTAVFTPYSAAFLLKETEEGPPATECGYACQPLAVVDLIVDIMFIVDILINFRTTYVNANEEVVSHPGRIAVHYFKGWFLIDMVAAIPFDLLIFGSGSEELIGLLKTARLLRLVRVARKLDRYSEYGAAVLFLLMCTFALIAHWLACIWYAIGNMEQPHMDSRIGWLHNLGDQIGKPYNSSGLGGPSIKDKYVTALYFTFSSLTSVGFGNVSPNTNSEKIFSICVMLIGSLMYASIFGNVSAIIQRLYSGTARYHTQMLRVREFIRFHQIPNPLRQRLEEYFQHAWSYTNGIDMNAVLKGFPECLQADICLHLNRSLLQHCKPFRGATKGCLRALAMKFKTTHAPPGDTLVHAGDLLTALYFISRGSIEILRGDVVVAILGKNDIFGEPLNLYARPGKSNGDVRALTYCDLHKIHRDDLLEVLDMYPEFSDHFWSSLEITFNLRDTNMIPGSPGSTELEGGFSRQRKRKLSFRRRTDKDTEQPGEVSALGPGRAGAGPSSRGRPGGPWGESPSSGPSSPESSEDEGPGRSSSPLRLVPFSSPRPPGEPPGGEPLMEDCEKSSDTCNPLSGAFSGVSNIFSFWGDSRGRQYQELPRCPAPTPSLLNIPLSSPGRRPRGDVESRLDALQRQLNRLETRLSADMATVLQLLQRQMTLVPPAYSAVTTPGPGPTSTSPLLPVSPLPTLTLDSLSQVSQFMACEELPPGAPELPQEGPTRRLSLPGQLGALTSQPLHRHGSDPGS
Method in brief: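 hERG currents recorded by automated patch clamp at room temperature in CHO-K1 cells, 6-point cumulative concentrations. SyncroPatch runs used KF-based internal (pH 7.2) and NMDG-containing external solution (pH 7.4), 0.33% DMSO; QPatchII runs used 2% or 0.4% DMSO. Only wells meeting seal-resistance and current-size criteria kept.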

PCSK9 [2] = target: PCSK9 (Homo sapiens, UniProt Q8NBP7, G670E/V474I); assay: biochemical
PCSK9 (Homo sapiens, UniProt Q8NBP7, G670E/V474I), sequence (Q8NBP7 with tags, fused parts or gaps V474I/G670E): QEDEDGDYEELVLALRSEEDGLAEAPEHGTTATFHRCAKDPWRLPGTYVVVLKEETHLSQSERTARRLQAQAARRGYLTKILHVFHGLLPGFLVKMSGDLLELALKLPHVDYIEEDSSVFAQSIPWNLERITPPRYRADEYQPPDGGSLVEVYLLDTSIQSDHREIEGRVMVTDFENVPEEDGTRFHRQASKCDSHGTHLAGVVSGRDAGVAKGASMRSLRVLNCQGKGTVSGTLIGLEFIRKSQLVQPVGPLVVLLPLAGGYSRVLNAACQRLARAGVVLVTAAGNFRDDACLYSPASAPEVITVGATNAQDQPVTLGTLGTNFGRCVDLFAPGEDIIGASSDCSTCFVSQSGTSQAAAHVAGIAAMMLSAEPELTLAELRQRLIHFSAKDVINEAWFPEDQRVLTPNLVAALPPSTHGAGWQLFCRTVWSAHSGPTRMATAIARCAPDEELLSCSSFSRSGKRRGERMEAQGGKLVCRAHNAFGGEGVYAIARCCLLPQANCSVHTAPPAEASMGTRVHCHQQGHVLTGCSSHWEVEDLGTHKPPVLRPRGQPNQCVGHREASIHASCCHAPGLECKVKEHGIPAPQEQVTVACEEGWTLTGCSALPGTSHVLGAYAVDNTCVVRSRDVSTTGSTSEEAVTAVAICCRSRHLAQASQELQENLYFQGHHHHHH

PCSK9 [3] = target: PCSK9 (Homo sapiens, UniProt Q8NBP7); assay: Assay 2 Biophysical human PCSK9 assay (SPR, Biacore); format: binding; set-up: biotinylated human PCSK9 (31-692)-Avi-His6; His6 (C); conditions: single-cycle kinetics, 30° C., geometric mean, read-out: Assay 2 (PCSK9 BIAcore DBA Cr) GMean Kd
PCSK9 (Homo sapiens, UniProt Q8NBP7), sequence (Q8NBP7 31-692): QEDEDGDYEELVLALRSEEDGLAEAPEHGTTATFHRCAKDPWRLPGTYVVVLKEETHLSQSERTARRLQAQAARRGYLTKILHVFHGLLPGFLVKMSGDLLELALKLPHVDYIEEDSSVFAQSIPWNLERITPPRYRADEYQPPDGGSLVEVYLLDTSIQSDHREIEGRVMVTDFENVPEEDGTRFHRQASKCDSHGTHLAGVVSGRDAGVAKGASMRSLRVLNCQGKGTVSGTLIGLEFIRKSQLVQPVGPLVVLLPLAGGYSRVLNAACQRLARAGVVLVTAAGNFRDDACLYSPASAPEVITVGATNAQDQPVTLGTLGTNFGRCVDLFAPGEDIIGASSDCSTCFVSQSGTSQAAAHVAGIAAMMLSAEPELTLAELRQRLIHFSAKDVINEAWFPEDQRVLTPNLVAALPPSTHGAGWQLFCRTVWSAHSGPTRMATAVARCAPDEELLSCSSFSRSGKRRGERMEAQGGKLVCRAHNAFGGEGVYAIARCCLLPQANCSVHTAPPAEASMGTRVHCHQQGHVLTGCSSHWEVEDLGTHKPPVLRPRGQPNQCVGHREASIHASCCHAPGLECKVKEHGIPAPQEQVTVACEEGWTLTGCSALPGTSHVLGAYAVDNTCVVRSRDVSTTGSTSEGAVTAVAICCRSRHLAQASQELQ
Experimental: The SPR binding experiments were performed on a Biacore S200 optical biosensor unit at 30° C. A Series S Sensor Chip SA that is designed to bind biotinylated molecules for interaction analysis in Biacore systems was equilibrated at room temperature prior to use. The running buffer for protein tethering and subsequent ligand binding experiments was 10 mM HEPES pH 7.4, 150 mM NaCl, 0.05% (v/v) Tween 20 pH 7.4.
For the surface tethering of PCSK9, biotinylated human PCSK9 (31-692)-Avi-His6 at a concentration of 0.5 mg/mL was used. Prior to the surface tethering, the surface was exposed to a solution of 50 mM NaOH, 500 mM NaCl via 3 consecutive injections of this solution with a contact time of 60 s and a flowrate of 10 μL min^−1 to remove non-conjugated streptavidin. The PCSK9 protein was diluted to a concentration of 20 μg/mL using running buffer and injected with a contact time of 180-300 s and a flowrate of 10 μL min^−1 over a single flow channel (typically flow channel 2 or flow channel 4) with the aim to achieve protein capture levels of >5000 response units (RU). Remaining biotin binding sites were blocked via 2 consecutive injections of a 10 μM D-biotin solution in running buffer with a contact time of 60 s and a flowrate of 10 μL min^−1 over all flow-channels. Flow-channels 1 and 3 typically served as a reference surface throughout the subsequent binding experiments.
The binding experiments were all performed at a flow rate of 30 PL min^−1 and by employing the method of single-cycle kinetics. This approach involves the sequential injection of a compound concentration series without regeneration steps. A contact time between 90-150 s was selected, which was followed by a 40 min dissociation phase to allow for a proper estimation of the dissociation rate constant. Test compounds were delivered in DMSO at a concentration of 10 mM and a digital dispenser HP D300 was used to set up the compound concentration series using 6 concentrations. The tested concentrations have been 30, 100, 300, 1000, 3000 and 10000 nM. Prior to injecting any compound, the surfaces were equilibrated by injecting running buffer over them in three separate pulses. The data collection rate was set to 10 Hz.
The raw sensorgrams of the compound injections were first subjected to reference subtraction (subtracting the signal from flow channel 1 and/or 3 from the signal from channels 2 and/or 4 respectively) and then blank subtraction (subtracting the signal from injecting DMSO controls from the reference subtracted data). The resulting double-referenced sensorgrams were then fitted using a 1:1 binding interaction model using the manufactures software package to extract kinetic- and affinity data. Active compounds have been defined by creating a detectable binding signal at the highest compound concentration ([…]) of 3 RUs. Kinetic- and affinity data on active compounds are only provided for those compounds where the binding signal at the highest compound concentration ([…]) is 50% of the theoretical maximum binding signal for a 1:1 binding interaction (Rmax, typically between 15-20 RUs) in order to enable a proper fitting of the data.

| Structure (SMILES) | IC50 [1] | IC50 (PCSK9 [2]) | Kd (PCSK9 [3]) |
| --- | --- | --- | --- |
| O=c1ccccn1-c1ccc(N[C@H]2CC[C@H](Nc3ncc(C4CC4)nn3)C2)nc1 [Example 50, 6′-(((1S,3S)-3-((6-Cyclopropyl-1,2,4-triazin-3-yl)amino)cyclopentyl)amino)-2H-[1,3′-bipyridin]-2-one] | > 40 µM | 8 nM | 9.8 nM |
| O=c1c(C(F)(F)F)cccn1-c1ccc(N[C@H]2CC[C@H](Nc3ncc(C4CC4)nn3)C2)nc1 [Example 51, 6′-(((1S,3S)-3-((6-Cyclopropyl-1,2,4-triazin-3-yl)amino)cyclopentyl)amino)-3-(trifluoromethyl)-2H-[1,3′-bipyridin]-2-one] | 10.8 µM | 1.8 nM | 0.9 nM |
| O=c1c(OC(F)(F)F)cccn1-c1ccc(N[C@H]2CC[C@H](Nc3ncc(C4CC4)nn3)C2)nc1 [Example 52, 6′-(((1S,3S)-3-((6-Cyclopropyl-1,2,4-triazin-3-yl)amino)cyclopentyl)amino)-3-(trifluoromethoxy)-2H-[1,3′-bipyridin]-2-one] | 39.9 µM | 2.3 nM | 0.7 nM |
| O=c1c(Cl)cccn1-c1ccc(N[C@H]2CC[C@H](Nc3ncc(C4CC4)nn3)C2)nc1 [Example 55, 3-Chloro-6′-(((1S,3S)-3-((6-cyclopropyl-1,2,4-triazin-3-yl)amino)cyclopentyl)amino)-2H-[1,3′-bipyridin]-2-one] | 30.3 µM | 1 nM | 0.4 nM |
| N#Cc1ccc(=O)n(-c2ccc(N[C@H]3CC[C@H](Nc4ncc(C5CC5)nn4)C3)nc2)c1 [Example 56, 6′-(((1S,3S)-3-((6-Cyclopropyl-1,2,4-triazin-3-yl)amino)cyclopentyl)amino)-2-oxo-2H-[1,3′-bipyridine]-5-carbonitrile] | 34.9 µM | 9 nM | 7.4 nM |
| CN1CC(=O)N(c2ccc(N[C@H]3CC[C@H](Nc4ncc(C5CC5)nn4)C3)nc2)C1=O [Example 57, 3-(6-(((1S,3S)-3-((6-Cyclopropyl-1,2,4-triazin-3-yl)amino)cyclopentyl)amino)pyridin-3-yl)-1-methylimidazolidine-2,4-dione] | > 40 µM | 11 nM | 7.5 nM |
| N#Cc1cccn(-c2ccc(N[C@H]3CC[C@H](Nc4ncc(C5CC5)nn4)C3)nc2)c1=O [Example 58, 6′-(((1S,3S)-3-((6-Cyclopropyl-1,2,4-triazin-3-yl)amino)cyclopentyl)amino)-2-oxo-2H-[1,3′-bipyridine]-3-carbonitrile] | > 40 µM | 1.6 nM | 2.2 nM |
| CN1C(=O)CN(c2ccc(N[C@H]3CC[C@H](Nc4ncc(C5CC5)nn4)C3)nc2)C1=O [Example 62, 1-(6-(((1S,3S)-3-((6-Cyclopropyl-1,2,4-triazin-3-yl)amino)cyclopentyl)amino)pyridin-3-yl)-3-methylimidazolidine-2,4-dione] | 36.3 µM | 6.5 nM | 4.3 nM |
| Cn1c(=O)n(-c2ccc(N[C@H]3CC[C@H](Nc4ncc(C5CC5)nn4)C3)nc2)c2ncccc21 [Example 63, 3-(6-(((1S,3S)-3-((6-Cyclopropyl-1,2,4-triazin-3-yl)amino)cyclopentyl)amino)pyridin-3-yl)-1-methyl-1,3-dihydro-2H-imidazo[4,5-b]pyridin-2-one] | > 40 µM | – | 1.4 nM |
| COc1cccn(-c2ccc(N[C@H]3CC[C@H](Nc4ncc(C5CC5)nn4)C3)nc2)c1=O [Example 64, 6′-(((1S,3S)-3-((6-Cyclopropyl-1,2,4-triazin-3-yl)amino)cyclopentyl)amino)-3-methoxy-2H-[1,3′-bipyridin]-2-one] | > 40 µM | 1.5 nM | 0.4 nM |
| COc1ccc(=O)n(-c2ccc(N[C@H]3CC[C@H](Nc4ncc(C5CC5)nn4)C3)nc2)c1 [Example 65, 6′-(((1S,3S)-3-((6-Cyclopropyl-1,2,4-triazin-3-yl)amino)cyclopentyl)amino)-5-methoxy-2H-[1,3′-bipyridin]-2-one] | 38.8 µM | 11.8 nM | 5.8 nM |
| Cc1cccn(-c2ccc(N[C@H]3CC[C@H](Nc4ncc(C5CC5)nn4)C3)nc2)c1=O [Example 66, 6′-(((1S,3S)-3-((6-Cyclopropyl-1,2,4-triazin-3-yl)amino)cyclopentyl)amino)-3-methyl-2H-[1,3′-bipyridin]-2-one] | > 40 µM | 1.7 nM | 1.5 nM |
| Cc1cnc(N[C@H]2CC[C@H](Nc3ccc(-n4ccccc4=O)cn3)C2)nn1 [Example 67, 6′-(((1S,3S)-3-((6-Methyl-1,2,4-triazin-3-yl)amino)cyclopentyl)amino)-2H-[1,3′-bipyridin]-2-one] | > 40 µM | 16 nM | 17 nM |
| C#CCNC(=O)c1cnc(N[C@H]2CC[C@H](Nc3ccc(-n4ccccc4=O)cn3)C2)nn1 [Example 69, 3-(((1S,3S)-3-((2-Oxo-2H-[1,3′-bipyridin]-6′-yl)amino)cyclopentyl)amino)-N-(prop-2-yn-1-yl)-1,2,4-triazine-6-carboxamide] | > 40 µM | 20 nM | 12 nM |
| O=C(NC1COC1)c1cnc(N[C@H]2CC[C@H](Nc3ccc(-n4ccccc4=O)cn3)C2)nn1 [Example 70, N-(Oxetan-3-yl)-3-(((1S,3S)-3-((2-oxo-2H-[1,3′-bipyridin]-6′-yl)amino)cyclopentyl)amino)-1,2,4-triazine-6-carboxamide] | > 40 µM | 19 nM | 21 nM |
| CNC(=O)c1cnc(N[C@H]2CC[C@H](Nc3ccc(-n4ccccc4=O)cn3)C2)nn1 [Example 75, N-Methyl-3-(((1S,3S)-3-((2-oxo-2H-[1,3′-bipyridin]-6′-yl)amino)cyclopentyl)amino)-1,2,4-triazine-6-carboxamide] | > 40 µM | 33 nM | 16 nM |
| O=c1ccc(Cl)cn1-c1ccc(N[C@H]2CC[C@H](Nc3ncc(C4CC4)nn3)C2)nc1 [Example 112, 5-Chloro-6′-(((1S,3S)-3-((6-cyclopropyl-1,2,4-triazin-3-yl)amino)cyclopentyl)amino)-2H-[1,3′-bipyridin]-2-one] | > 40.1 µM | 4.7 nM | 3.9 nM |
| O=c1ccncn1-c1ccc(N[C@H]2CC[C@H](Nc3ncc(C4CC4)nn3)C2)nc1 [Example 114, 3-(6-(((1S,3S)-3-((6-Cyclopropyl-1,2,4-triazin-3-yl)amino)cyclopentyl)amino)pyridin-3-yl)pyrimidin-4(3H)-one] | 18.6 µM | 7.6 nM | 5.3 nM |
| Cn1c(=O)n(-c2ccc(N[C@H]3CC[C@H](Nc4ncc(C5CC5)nn4)C3)nc2)c2cc(C#N)ccc21 [Example 116, 3-(6-(((1S,3S)-3-((6-Cyclopropyl-1,2,4-triazin-3-yl)amino)cyclopentyl)amino)pyridin-3-yl)-1-methyl-2-oxo-2,3-dihydro-1H-benzo[d]imidazole-5-carbonitrile] | 12 µM | 0.7 nM | 0.3 nM |
| Cn1c(=O)n(-c2ccc(N[C@H]3CC[C@H](Nc4ncc(C5CC5)nn4)C3)nc2)c2ccc(C#N)cc21 [Example 117, 1-(6-(((1S,3S)-3-((6-Cyclopropyl-1,2,4-triazin-3-yl)amino)cyclopentyl)amino)pyridin-3-yl)-3-methyl-2-oxo-2,3-dihydro-1H-benzo[d]imidazole-5-carbonitrile] | 6.3 µM | 1 nM | 0.9 nM |
| O=c1cccnn1-c1ccc(N[C@H]2CC[C@H](Nc3ncc(C4CC4)nn3)C2)nc1 [Example 118] | > 40 µM | 7.4 nM | 8.5 nM |
